According to patent publication US20220193092A1, “PROGESTOGEN FOR USE IN THE TREATMENT OF CYTOKINE RELEASE SYNDROME” (Shenzhen Evergreen Therapeutics Co,. Ltd., priority 2020, published 2022):

Legend:
Assay type in all cases: cell-based
[1] = tested on: human peripheral blood mononuclear cells (PBMCs); test: T-cell inflammation inhibition assay using anti-CD3 (OKT3): cytokine release from PBMCs; conditions: PBMCs stimulated by OKT3
Experimental: (§1) The human peripheral blood mononuclear cells (PBMCs) used in the following experiments are derived from Eurofins Discovery (St Charles, Mo., USA) and are a mixture of PBMCs from three healthy human subjects (Lot#98, 99, 101).
(§2) 2) T-Cell Inflammation Inhibition Assay Protocol Using Anti-CD3 (OKT3) or PHA
(§3) Cryopreserved PBMCs are drip thawed, pooled and diluted to an appropriate density, and inoculated into a 96-well polypropylene plate (2×10^5 cells per well) with 150 μL per well of culture medium (RPMI 1640, 10% heat inactivated fetal bovine serum, 1% penicillin/streptomycin, 2 mM L-glutamine). The cells are incubated under 5% CO2 at 37° C. for 1 hour before adding HPC. HPC is dissolved in 50% ethanol & PBS, and is further diluted to 20× with cell culture medium. Then HPC is added to the PBMCs in volumes of 10 μL (1×) in triplicate and incubated under 5% CO2 at 37° C. for 16 hours.
(§4) After incubation for 16 hours, 40 μL of anti-CD3 (OKT3, 3 μg/well or 15 μg/mL) or PHA (10 μg/mL) is added to the wells according to the plate layout. The cells are incubated under 5% CO2 at 37° C. for 48 hours. Thereafter, the plates are centrifuged at 200×g for 10 minutes. Cell culture supernatants are collected and stored at −80° C. until use in analysis.
(§5) The cytokine level of each sample is determined using Luminex methodology and carried out in accordance with the manufacturer's protocol. Cytokine levels in the cell culture supernatants are determined in accordance with the manufacturer's protocol using Human Cytokine/Chemokine Magnetic bead panel from Millipore Sigma (catalogue No. HCYTOMAG-60K) with standards range 3.2, 16, 80, 400, 2000, […].
(§6) The following cytokines are measured: IFN-γ, IL-2, IL-6, IL-10 and TNFα.

[2] = tested on: human peripheral blood mononuclear cells (PBMCs); test: T-cell inflammation inhibition assay using anti-CD28 super agonist (ANC28.1/5D10): cytokine release from PBMCs; conditions: PBMCs stimulated by anti-CD28 antibody
Experimental: as §1
1) T-cell Inflammation Inhibition Assay Protocol Using Anti-CD28 Super Agonists First Day
High-binding enzyme-labeled plates are coated with anti-CD28 super agonists (clone ANC28.1/5D10, 2 μg/well) dissolved in PBS 1× and incubated overnight in a biosafety cabinet with lid open and immobilized by air-dry. Cryopreserved PBMCs are drip thawed, pooled and diluted to an appropriate density, and then are inoculated into a U bottom 96-well polypropylene plate (1.2×10^5 cells per well) with 228 μL per well of culture medium (RPMI 1640, 10% heat inactivated fetal bovine serum, 1% penicillin/streptomycin, 2 mM L-glutamine). The cells are incubated under 5% CO2 at 37° C. for 1 hour before adding HPC. HPC is dissolved in 50% ethanol & PBS, and is further diluted to 20× with cell culture medium. Then HPC is added to the PBMCs in volumes of 12 μL (1×) in triplicate and incubated under 5% CO2 at 37° C. for 16 hours.
After 16 hours of incubation, 200 μL of cells (1×10^5) treated with HPC or a control reagent are transferred to the anti-CD28 coated enzyme-labeled plates, and incubated under 5% CO2 at 37° C. for 48 hours. For the negative control groups, 200 μL of cells (1×10^5) are transferred to an enzyme-labeled plate coated with anti-CD28 or isotype IgG1. After 48 hours of incubation, the enzyme-labeled plates are centrifuged at […] for 10 minutes. Cell culture supernatants are collected and stored at −80° C. until use in analysis.
as §5, §6

[3] = tested on: human peripheral blood mononuclear cells (PBMCs); test: T-cell inflammation inhibition assay using PHA: cytokine release from PBMCs
Experimental: as §1, §2, §3, §4, §5, §6

[4] = 16 h HPC pre-incubation, 48 h stimulation, Luminex
[5] = PBMCs stimulated by PHA (10 μg/mL), 16 h HPC pre-incubation, 48 h stimulation, Luminex

With `CCCCCC(=O)O[C@]1(C(C)=O)CC[C@H]2[C@@H]3CCC4=CC(=O)CC[C@]4(C)[C@H]3CC[C@@]21C` [HPC, hydroxyprogesterone caproate] the “inhibition effect on IL-6 and IL-10 release: concentration dependence” value [1] was “concentration dependent”, the “release of IFN-γ” value [1, 4] was “significantly inhibited” and the “release of IL-6” value [1, 4] was “significantly inhibited”. The “release of IL-10” value [1, 4] was “significantly inhibited”, the “inhibition effect on IL-10 and IFN-γ release: concentration dependence” value [2] was “concentration dependent” and the “release of IFN-γ” value [2, 4] was “significantly inhibited”. For the same compound, the “release of IL-6” value [2, 4] was “significantly inhibited”, the “release of IL-10” value [2, 4] was “significantly inhibited” and the “release of TNF-α” value [2, 4] was “significantly inhibited”. For the same compound, the “inhibition of IL-2, IL-6, IL-10 and TNF-α release: concentration dependence” value ([3]; PBMCs stimulated by PHA) was “concentration dependent”, the “release of IL-2” value [3, 5] was “significantly inhibited” and the “release of IL-6” value [3, 5] was “significantly inhibited”. The “release of IL-10” value [3, 5] was “significantly inhibited” and the “release of TNF-α” value [3, 5] was “significantly inhibited”.
